{"source": "patent US5304367A", "about": "“In vivo brain imaging agent and method for diagnosis of psychiatric disorders” (New York University, priority 1990, dated 1994)", "key": {"β-adrenergic receptor": {"tested_on": "β-adrenergic receptor", "assay": "[^3 H]DHA saturation binding in prefrontal cortical homogenates from suicides and controls (Scatchard analysis)", "parameters": "species or system human", "source_text": "(§1) Following the characterization and localization of a group effect (such as, for example, age, sex or suicide) by autoradiography, samples from at least one involved region are dissected from the relevant blocks and homogenized for saturation binding studies using well known techniques.\nFourteen suicide and 14 pair-matched control brains were collected over 3 years from the medical examiner's offices in New York City and Jaffa, ISRAEL. […] The results of the coroner's examination as well as the results of broad-spectrum toxicological tests performed by the forensic laboratory were made available within 8 weeks. Only drug-free and pathology-free brains were included. For each suicide brain, a control matched for sex and age group with a PMD under 48 hours was collected the same day or within a few days, so that the pairs are also matched for storage time. The brains from each pair were dissected or sectioned on the same day and receptors were labeled in the same experiment, by an experimenter blind to the identity of the samples.\n(§2) The brains were removed at autopsy and the right hemisphere sliced in the coronal plane. The slices, about 2 cm thick, were examined for signs of pathology and frozen in powdered dry ice, then removed for long-term storage at -80° C. Grey matter from the most frontal slice (prefrontal cortex) was dissected with a scalpel and homogenized. Crude membrane preparations were made from the homogenates, divided and stored frozen for saturation binding assays. The other slices were used for autoradiography. Eight concentrations of [^3 H]DHA (New England Nuclear, specific activity: 72 Ci/mmol), ranging from 0.1 to 4 nM were incubated with samples of the membrane preparations, with parallel incubates containing 10^-6 M propranolol to establish non-specific binding (Biegon et al., Life Sci. 32:2015-2022 ;(1983)); Enna et al., J. Neurochem. 28:233-236 (1983)). β-Receptor subtypes were distinguished by coincubation of the radioligand 10^-6 M concentrations of either zinterol, a […] blocker, or […] blocker, in 5 out of the 10 pairs included in this part of the study (Ecker et al., Int. Catecholamine Symp. Abstr. 6:52 (1987)). The affinity (Kd and maximal density (Bmax) of the receptors were derived from Scatchard analysis (Scatchard G., Ann. N.Y. Acad. Sci. 51:660-672 (1949)) of the binding data and protein was assayed by the method of Lowry et al.(Lowry et al., J. Biol. Chem. 193:265-275 (1951)).\nThe binding characteristics of βARs were studied in prefrontal cortical homogenates from 10 pairs. The region corresponds to Brodmann's areas 9 and 10."}, "β1-receptors": {"biological_target": "T1, β1-receptors (Homo sapiens, UniProt P08588)", "T1 construct": "Crude membrane preparations were made from the homogenates; from tissue; host or cells: human post-mortem prefrontal cortex (grey matter), crude membranes", "T1 sequence (P08588 whole entry)": "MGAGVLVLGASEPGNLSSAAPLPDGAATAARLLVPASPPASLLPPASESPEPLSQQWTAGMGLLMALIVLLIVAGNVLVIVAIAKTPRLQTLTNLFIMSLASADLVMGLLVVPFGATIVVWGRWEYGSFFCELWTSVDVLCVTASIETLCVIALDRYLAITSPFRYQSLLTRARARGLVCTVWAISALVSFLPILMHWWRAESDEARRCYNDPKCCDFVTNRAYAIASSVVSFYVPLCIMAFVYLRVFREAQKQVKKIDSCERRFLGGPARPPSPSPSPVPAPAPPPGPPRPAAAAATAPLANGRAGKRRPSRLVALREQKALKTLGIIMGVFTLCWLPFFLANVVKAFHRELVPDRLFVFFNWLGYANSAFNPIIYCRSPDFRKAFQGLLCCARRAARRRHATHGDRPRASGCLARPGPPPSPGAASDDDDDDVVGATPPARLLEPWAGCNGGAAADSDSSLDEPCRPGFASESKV", "assay": "[^3 H]DHA saturation binding in prefrontal cortical homogenates, β1-receptors", "source_text": "as §1, §2"}, "β2-receptors": {"biological_target": "T2, β2-receptors (Homo sapiens, UniProt P07550)", "T2 construct": "Crude membrane preparations were made from the homogenates; from tissue; host or cells: human post-mortem prefrontal cortex (grey matter), crude membranes", "T2 sequence (P07550 whole entry, looked up)": "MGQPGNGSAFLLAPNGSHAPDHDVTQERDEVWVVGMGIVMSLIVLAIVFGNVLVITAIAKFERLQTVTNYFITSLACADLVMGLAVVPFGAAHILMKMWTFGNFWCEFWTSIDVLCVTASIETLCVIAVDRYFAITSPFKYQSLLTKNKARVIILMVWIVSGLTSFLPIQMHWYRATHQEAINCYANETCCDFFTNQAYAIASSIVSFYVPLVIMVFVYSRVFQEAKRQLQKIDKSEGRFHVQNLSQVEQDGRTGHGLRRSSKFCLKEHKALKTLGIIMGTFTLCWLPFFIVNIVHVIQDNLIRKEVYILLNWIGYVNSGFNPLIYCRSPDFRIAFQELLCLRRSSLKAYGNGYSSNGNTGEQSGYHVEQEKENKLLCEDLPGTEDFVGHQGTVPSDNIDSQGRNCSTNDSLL", "assay": "[^3 H]DHA saturation binding in prefrontal cortical homogenates, β2-receptors", "source_text": "as §1, §2"}, "βAR [1]": {"tested_on": "βAR", "assay": "^3 H-DHA saturation binding on homogenates of frontal superior gyrus, total", "parameters": "species or system human", "details": "3 brains"}, "β1 receptor subtype": {"tested_on": "β1 receptor subtype", "assay": "^3 H-DHA saturation binding on homogenates of frontal superior gyrus, β1", "parameters": "species or system human", "details": "3 brains, 0.1 μM zinterol or metoprolol for subtype differentiation", "experimental": "as §1\n(§3) Based on 3 brains, a total Bmax of 50-100 fm/mg protein was calculated, with the β1 receptor subtype accounting for the majority of the sites (Bmax: 40-60 fm/mg protein) and a smaller β2 receptor fraction (Bmax: 25-40 fm/mg protein). The Bmax values for the two subtypes added up to total specific binding in each individual brain, confirming the use of the two blocker concentrations for receptor subtype differentiation."}, "β2 receptor": {"tested_on": "β2 receptor", "assay": "^3 H-DHA saturation binding on homogenates of frontal superior gyrus, β2", "parameters": "species or system human", "details": "3 brains, 0.1 μM zinterol or metoprolol for subtype differentiation", "experimental": "as §1, §3"}, "β1 receptors": {"tested_on": "β1 receptors", "assay": "autoradiographic mapping of β1 receptors (iodopindolol in the presence of zinterol)", "format": "binding, human", "details": "FIG. 3", "experimental": "(§4) Slides holding tissue sections are incubated for about 70 min at approximately 25° C. with 0.15 nM ^125 I-iodopindolol (New England Nuclear, 2200 Ci/mmole) in 25 mM Tris buffer, pH 7.5, containing 150 mM NaCl. Nonspecific binding is determined in the presence of 1 μM propranolol (see Examples, below). Zinterol, a selective β2 blocker, or metoprolol, a selective β1 antagonist, are added to the incubation buffer at 0.1 μM to achieve selective labeling of the β1 and β2 receptor subtypes, respectively. The incubation is followed by three 20 min washes in the same ice cold buffer. Slides are then dipped in ice cold distilled water to remove buffer salts, dried on a 50° C. slide warmer and apposed to ^3 H-sensitive film (Amersham ^3 H-hyperfilm) for 48-96 hours. The film is coexposed to commercial iodine standards (available from Amersham, for example). Film is developed manually using standard developer and fixer such as those available from the Eastman-Kodak Company. […]\n(§5) Based on 3 brains, a total Bmax of 50-100 fm/mg protein was calculated, with the β1 receptor subtype accounting for the majority of the sites (Bmax: 40-60 fm/mg protein) and a smaller β2 receptor fraction (Bmax: 25-40 fm/mg protein). […]"}, "β2 receptors": {"tested_on": "β2 receptors", "assay": "autoradiographic mapping of β2 receptors (iodopindolol in the presence of metoprolol)", "format": "binding, human", "details": "FIG. 4", "experimental": "as §4, §5"}, "βAR [2]": {"tested_on": "βAR", "assay": "in vivo autoradiography of brain distribution and kinetics", "parameters": "species or system rat", "experimental": "In vivo autoradiography was been used to study brain distribution and kinetics of iodopindolol. Groups of rats (3 per treatment/time) were injected intravenously (i.v.) in the tail vein with 250 μCi/kg ^125 I-iodopindolol, either alone or 5 min after an intraperitoneal injection of the βAR antagonist (beta blocker) propranolol (5 mg/kg), to define nonspecific binding. Animals were sacrificed by decapitation 15, 30, 60 and 90 minutes post- injection and the brains quickly removed. The right hemisphere and a blood sample were used for direct counting while the left hemisphere was frozen immediately on dry ice and then sectioned sagittally. Sections were apposed to hyperfilm for one week."}, "[3]": {"assay": "whole body distribution, mice, 2 μCi", "format": "in vivo, mouse", "details": "conclusion from whole body distribution studies", "experimental": "In a subsequent study, whole body distribution was examined in mice following tail vein injection of 2 μCi ^125 I-iodopindolol. Animals were sacrificed at various time points up to 22 hours post-injection. Percent injected dose (%ID) was determined in 11 organs, blood and urine. At one minute, lungs contained the highest %ID (17%), heart 3-4 %ID and brain 0.3%ID."}, "[4]": {"biological_target": "beta adrenergic receptors (βAR)", "details": "βAR antagonist; Barovsky et al.; read-out: affinity; cited from earlier work"}, "[5]": {"tested_on": "serotonin receptors of the 5HT1B subtype", "details": "unlike most other βAR antagonists; cited from earlier work"}, "[6]": {"tested_on": "serotonin receptors of the 5HT1D subtype", "details": "unlike most other βAR antagonists; cited from earlier work"}, "β1": {"tested_on": "β1", "details": "experimental animals; cited from earlier work"}, "β2": {"tested_on": "β2", "details": "experimental animals; cited from earlier work"}, "[7]": {"details": "experimental animals; cited from earlier work"}}, "note": "Where “and” joins values, the source holds several entries; their conditions need not be identical. Equal entries are not always repeated. Where two headings read alike, the source gives them in different places.", "data": [{"smiles": "CCCc1ccccc1OCC(O)CNC(C)C", "note": "(stereo not drawn) [[^3 H]DHA, dihydroalprenolol]", "values": [{"measurement": "Bmax", "setting": "β-adrenergic receptor; control, individual of matched pair, prefrontal cortex", "value": "65 fm/mg P and 92 fm/mg P and 44 fm/mg P and 31 fm/mg P and 86 fm/mg P and 55 fm/mg P and 78 fm/mg P and 36 fm/mg P and 32 fm/mg P and 53 fm/mg P"}, {"measurement": "Kd", "setting": "β-adrenergic receptor; control, individual of matched pair, prefrontal cortex, read-out: Kd", "value": "0.84 nM and 0.8 nM and 0.3 nM and 0.4 nM and 0.6 nM and 1.25 nM and 1.5 nM"}, {"measurement": "Bmax, mean", "setting": "β-adrenergic receptor; control, mean of 10, SEM 7.9", "value": 57.7, "unit": "fm/mg P"}, {"measurement": "change in receptor affinity (Kd)", "setting": "β-adrenergic receptor; suicide vs control", "value": "no significant change in receptor affinity"}, {"measurement": "Increases in binding (range)", "setting": "β-adrenergic receptor; suicide vs control, 9 of the 10 pairs", "value": "30% to 115%"}, {"measurement": "Increases in binding (mean)", "setting": "β-adrenergic receptor; suicide vs control, P<0.0003", "value": 48, "unit": "%"}, {"measurement": "Bmax", "setting": "β-adrenergic receptor; suicide, individual of matched pair, prefrontal cortex", "value": "108 fm/mg P and 81 fm/mg P and 85 fm/mg P and 67 fm/mg P and 119 fm/mg P and 97 fm/mg P and 106 fm/mg P and 58 fm/mg P and 53 fm/mg P and 83 fm/mg P"}, {"measurement": "Kd", "setting": "β-adrenergic receptor; suicide, individual of matched pair, prefrontal cortex, read-out: Kd", "value": "0.98 nM and 0.9 nM and 1.5 nM and 1.2 nM and 1.4 nM and 1.1 nM and 1 nM and 0.4 nM and 0.8 nM"}, {"measurement": "Kd", "setting": "β-adrenergic receptor; suicide, mean of 10, SEM 0.1, read-out: Kd, mean", "value": 1, "unit": "nM"}, {"measurement": "Bmax, mean", "setting": "β-adrenergic receptor; suicide, mean of 10, SEM 7.8, P < 0.0003", "value": 86.0, "unit": "fm/mg P"}, {"measurement": "Bmax, β1-receptors", "setting": "β1-receptors; control, n=5", "value": "37.7±9.3", "unit": "fm/mg protein"}, {"measurement": "Kd", "setting": "β1-receptors; control, n=5", "value": "2.2 ± 0.5", "unit": "nM"}, {"measurement": "Kd", "setting": "β1-receptors; suicide, n=5", "value": "1.7 ± 0.3", "unit": "nM"}, {"measurement": "Bmax, β1-receptors", "setting": "β1-receptors; suicide, n=5, P<0.015", "value": "50.3±9.4", "unit": "fm/mg protein"}, {"measurement": "Bmax, β2-receptors", "setting": "β2-receptors; control", "value": "28.0±4.0", "unit": "fm/mg protein"}, {"measurement": "Kd", "setting": "β2-receptors; control", "value": "1.1 ± 0.13", "unit": "nM"}, {"measurement": "Bmax, β2-receptors", "setting": "β2-receptors; suicide, p=0.1", "value": "39.2±3.1", "unit": "fm/mg protein"}, {"measurement": "total Bmax", "setting": "βAR [1]", "value": "50-100 fm/mg protein"}, {"measurement": "Bmax, β1 receptor subtype", "setting": "β1 receptor subtype", "value": "40-60 fm/mg protein"}, {"measurement": "Bmax, β2 receptor", "setting": "β2 receptor", "value": "25-40 fm/mg protein"}]}, {"smiles": "CC(C)NCC(O)COc1cccc2[nH]cc(I)c12", "note": "(stereo not drawn) [iodopindolol]", "values": [{"measurement": "distribution of β1 receptors", "setting": "β1 receptors", "value": "predominate in the prefrontal cortical external layers and in basal ganglia"}, {"measurement": "distribution of β2 receptors", "setting": "β2 receptors", "value": "found in internal cortical layers and predominate in hippocampus, cerebellum and white matter"}, {"measurement": "difference between total and nonspecific binding to brains", "setting": "βAR [2]; 15 and 30 minutes post-injection, 250 μCi/kg i.v., propranolol 5 mg/kg i.p.", "value": "very small difference"}, {"measurement": "brain binding of radiolabel, propranolol pre-injected", "setting": "βAR [2]; 60 and 90 minutes, propranolol 5 mg/kg i.p.", "value": "low and uniform brain binding of radiolabel"}, {"measurement": "distribution of binding in the brain", "setting": "βAR [2]; 60 and 90 minutes, without propranolol", "value": "high levels in frontal cortex, caudate, and cerebellum; moderate to low levels in various hippocampal structures and thalamic nuclei; low levels in brain stem and medulla"}, {"measurement": "difference between iodopindolol alone and propranolol-pretreated animals", "setting": "βAR [2]; FIG. 5, 15 minutes post injection", "value": "no apparent difference"}, {"measurement": "distribution of radioactivity", "setting": "βAR [2]; FIG. 6, 60 minutes post injection", "value": "relatively high levels in external cortical layers, caudate and cerebellum and relatively low levels in hippocampus"}, {"measurement": "brain levels of bound radiolabel", "setting": "βAR [2]; between 60 and 90 minutes", "value": "do not decline appreciably between 60 and 90 minutes"}, {"measurement": "specific labelling of βAR in the brain", "setting": "βAR [2]; one hour after injection", "value": "specifically labels βAR"}, {"measurement": "brain uptake", "setting": "[3]", "value": "hindered by the blood brain barrier"}, {"measurement": "Kd", "setting": "[4]", "value": "< 1", "unit": "nM"}, {"measurement": "affinity for serotonin receptors, 5HT1B", "setting": "[5]", "value": "low affinity"}, {"measurement": "affinity for serotonin receptors, 5HT1D", "setting": "[6]", "value": "low affinity"}, {"measurement": "labelling of βAR subtype β1 in vivo", "setting": "β1", "value": "labels both βAR subtypes, β1 and β2, in vivo"}, {"measurement": "labelling of βAR subtype β2 in vivo", "setting": "β2", "value": "labels both βAR subtypes, β1 and β2, in vivo"}, {"measurement": "crossing of blood brain barrier", "setting": "[7]", "value": "crosses the blood brain barrier"}]}]}
